Source: PubChem BioAssay (NCI)
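A five-concentration, 48-hour dose response in 96-well plates underlies each endpoint, interpolated linearly between surrounding concentrations. TGI is the concentration that stops growth completely.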

How the values were obtained:
Experiment in all cases: NCI-60 cell line screen, 48 h
MDA-N = test system: MDA-N
MCF7 breast = test system: MCF7 breast
NCI-H522 lung = test system: NCI-H522 lung
HOP-92 NSCLC = test system: HOP-92 NSCLC
A498 renal = test system: A498 renal
PC-3 prostate = test system: PC-3 prostate
NCI-H226 lung = test system: NCI-H226 lung
NCI/ADR-RES ovarian = test system: NCI/ADR-RES ovarian
HCC-2998 colon = test system: HCC-2998 colon
U251 CNS = test system: U251 CNS
MALME-3M melanoma = test system: MALME-3M melanoma
NCI-H23 lung = test system: NCI-H23 lung
HCT-15 colon = test system: HCT-15 colon
HS 578T breast = test system: HS 578T breast
TK-10 renal = test system: TK-10 renal
SF-268 CNS = test system: SF-268 CNS
MDA-MB-435 = test system: MDA-MB-435
IGROV1 ovarian = test system: IGROV1 ovarian
SF-539 CNS = test system: SF-539 CNS
SK-MEL-28 melanoma = test system: SK-MEL-28 melanoma
OVCAR-3 ovarian = test system: OVCAR-3 ovarian
EKVX NSCLC = test system: EKVX NSCLC
LOX IMVI melanoma = test system: LOX IMVI melanoma
UACC-257 melanoma = test system: UACC-257 melanoma
HOP-62 NSCLC = test system: HOP-62 NSCLC
HCT-116 colon = test system: HCT-116 colon
HT29 colon = test system: HT29 colon
UO-31 renal = test system: UO-31 renal
SK-MEL-5 melanoma = test system: SK-MEL-5 melanoma
786-0 renal = test system: 786-0 renal
KM12 colon = test system: KM12 colon
SK-MEL-2 melanoma = test system: SK-MEL-2 melanoma
M14 melanoma = test system: M14 melanoma
UACC-62 melanoma = test system: UACC-62 melanoma
COLO 205 colon = test system: COLO 205 colon
NCI-H460 lung = test system: NCI-H460 lung
SF-295 CNS = test system: SF-295 CNS
ACHN renal = test system: ACHN renal
MDA-MB-231 breast = test system: MDA-MB-231 breast
MOLT-4 leukemia = test system: MOLT-4 leukemia
CCRF-CEM leukemia = test system: CCRF-CEM leukemia
SNB-75 CNS = test system: SNB-75 CNS
OVCAR-5 ovarian = test system: OVCAR-5 ovarian
A549 NSCLC = test system: A549 NSCLC
SR leukemia = test system: SR leukemia
DU-145 prostate = test system: DU-145 prostate
BT-549 breast = test system: BT-549 breast
T-47D breast = test system: T-47D breast
SN12C renal = test system: SN12C renal
RXF 393 renal = test system: RXF 393 renal
RPMI-8226 leukemia = test system: RPMI-8226 leukemia
OVCAR-8 ovarian = test system: OVCAR-8 ovarian
OVCAR-4 ovarian = test system: OVCAR-4 ovarian
CAKI-1 renal = test system: CAKI-1 renal
SW-620 colon = test system: SW-620 colon
SK-OV-3 ovarian = test system: SK-OV-3 ovarian
SNB-19 CNS = test system: SNB-19 CNS
K-562 leukemia = test system: K-562 leukemia

With `C=C1C(=O)O[C@@H]2C[C@@]3(C)CCC[C@H](C)C3=C[C@H]12` (tested in a mixture with another compound) the TGI (MDA-N) was 7.08 µM, the TGI (MCF7 breast) was 10.7 µM and the TGI (NCI-H522 lung) was 2.94 µM. It also gave a TGI (HOP-92 NSCLC) of 3.48 µM, a TGI (A498 renal) of 3.58 µM and a TGI (PC-3 prostate) of 10 µM. It also gave a TGI (NCI-H226 lung) of 16.6 µM, a TGI (NCI/ADR-RES ovarian) of 5.2 µM and a TGI (HCC-2998 colon) of 15.5 µM. It also gave a TGI (U251 CNS) of 9.93 µM, a TGI (MALME-3M melanoma) of 2.42 µM and a TGI (NCI-H23 lung) of 5.67 µM. The TGI (HCT-15 colon) was 4.39 µM, the TGI (HS 578T breast) was 17.3 µM and the TGI (TK-10 renal) was 6.92 µM. For the same molecule, the TGI (SF-268 CNS) was 7.2 µM, the TGI (MDA-MB-435) was 3.72 µM and the TGI (IGROV1 ovarian) was 7.71 µM. For the same molecule, the TGI (SF-539 CNS) was 4.85 µM, the TGI (SK-MEL-28 melanoma) was 5.13 µM and the TGI (OVCAR-3 ovarian) was 3.44 µM. The TGI (EKVX NSCLC) was 15 µM, the TGI (LOX IMVI melanoma) was 11.7 µM and the TGI (UACC-257 melanoma) was 3.75 µM. For the same molecule, the TGI (HOP-62 NSCLC) was 7.74 µM, the TGI (HCT-116 colon) was 2.93 µM and the TGI (HT29 colon) was 5.34 µM. It also gave a TGI (UO-31 renal) of 3.57 µM, a TGI (SK-MEL-5 melanoma) of 3.9 µM and a TGI (786-0 renal) of 2.83 µM. For the same molecule, the TGI (KM12 colon) was 8.89 µM, the TGI (SK-MEL-2 melanoma) was 5.41 µM and the TGI (M14 melanoma) was 2.75 µM. It also gave a TGI (UACC-62 melanoma) of 6.94 µM, a TGI (COLO 205 colon) of 3.18 µM and a TGI (NCI-H460 lung) of 14.3 µM. The TGI (SF-295 CNS) was 24.6 µM, the TGI (ACHN renal) was 6.98 µM and the TGI (MDA-MB-231 breast) was 6.72 µM. For the same molecule, the TGI (MOLT-4 leukemia) was 3.73 µM, the TGI (CCRF-CEM leukemia) was over 100 µM and the TGI (SNB-75 CNS) was 5.6 µM. For the same molecule, the TGI (OVCAR-5 ovarian) was 15.8 µM, the TGI (A549 NSCLC) was 18.6 µM and the TGI (SR leukemia) was 3.26 µM. It also gave a TGI (DU-145 prostate) of 8.67 µM, a TGI (BT-549 breast) of 3.31 µM and a TGI (T-47D breast) of 3.18 µM. The TGI (SN12C renal) was 3.44 µM, the TGI (RXF 393 renal) was 4.07 µM and the TGI (RPMI-8226 leukemia) was 4.05 µM. For the same molecule, the TGI (OVCAR-8 ovarian) was 3.13 µM, the TGI (OVCAR-4 ovarian) was 6.45 µM and the TGI (CAKI-1 renal) was 3.57 µM. It also gave a TGI (SW-620 colon) of 3.97 µM, a TGI (SK-OV-3 ovarian) of 22.7 µM and a TGI (SNB-19 CNS) of 22.4 µM.
`O=C(O)CSC1=NCCN1` gave a TGI (MDA-N) of over 100 µM, a TGI (MCF7 breast) of over 100 µM and a TGI (NCI-H522 lung) of over 100 µM. For the same molecule, the TGI (HOP-92 NSCLC) was over 100 µM, the TGI (A498 renal) was over 100 µM and the TGI (PC-3 prostate) was over 100 µM. It also gave a TGI (NCI/ADR-RES ovarian) of over 100 µM, a TGI (U251 CNS) of over 100 µM and a TGI (MALME-3M melanoma) of over 100 µM. The TGI (NCI-H23 lung) was over 100 µM, the TGI (HCT-15 colon) was over 100 µM and the TGI (HS 578T breast) was over 100 µM. The TGI (TK-10 renal) was over 100 µM, the TGI (SF-268 CNS) was over 100 µM and the TGI (MDA-MB-435) was over 100 µM. It also gave a TGI (IGROV1 ovarian) of over 100 µM, a TGI (SF-539 CNS) of over 100 µM and a TGI (SK-MEL-28 melanoma) of over 100 µM. For the same molecule, the TGI (OVCAR-3 ovarian) was over 100 µM, the TGI (EKVX NSCLC) was over 100 µM and the TGI (LOX IMVI melanoma) was over 100 µM. The TGI (HOP-62 NSCLC) was over 100 µM, the TGI (HCT-116 colon) was over 100 µM and the TGI (HT29 colon) was over 100 µM. The TGI (UO-31 renal) was over 100 µM, the TGI (SK-MEL-5 melanoma) was over 100 µM and the TGI (786-0 renal) was over 100 µM. The TGI (K-562 leukemia) was over 100 µM, the TGI (KM12 colon) was over 100 µM and the TGI (SK-MEL-2 melanoma) was over 100 µM. The TGI (M14 melanoma) was over 100 µM, the TGI (UACC-62 melanoma) was over 100 µM and the TGI (COLO 205 colon) was over 100 µM. It also gave a TGI (NCI-H460 lung) of over 100 µM, a TGI (SF-295 CNS) of over 100 µM and a TGI (ACHN renal) of over 100 µM. The TGI (MDA-MB-231 breast) was over 100 µM, the TGI (MOLT-4 leukemia) was over 100 µM and the TGI (CCRF-CEM leukemia) was over 100 µM. For the same molecule, the TGI (SNB-75 CNS) was over 100 µM, the TGI (OVCAR-5 ovarian) was over 100 µM and the TGI (A549 NSCLC) was over 100 µM. The TGI (SR leukemia) was over 100 µM, the TGI (DU-145 prostate) was over 100 µM and the TGI (BT-549 breast) was over 100 µM. The TGI (T-47D breast) was over 100 µM, the TGI (SN12C renal) was over 100 µM and the TGI (RXF 393 renal) was over 100 µM. For the same molecule, the TGI (RPMI-8226 leukemia) was over 100 µM, the TGI (OVCAR-8 ovarian) was over 100 µM and the TGI (OVCAR-4 ovarian) was over 100 µM. It also gave a TGI (CAKI-1 renal) of over 100 µM, a TGI (SW-620 colon) of over 100 µM and a TGI (SK-OV-3 ovarian) of over 100 µM. For the same molecule, the TGI (SNB-19 CNS) was over 100 µM.
